The values below are quoted from earlier work in paper PMC4691061, “Repositioning of Thiourea-Containing Drugs as Tyrosinase Inhibitors” (International Journal of Molecular Sciences, 2015).

Usually IC50 stands for the concentration that inhibits the measured activity by half.

Structures are written as SMILES.

This data set concerns the target tyrosinase. The following applies: tyrosinase; read-out: IC50; cited from earlier work.

As to `CCc1cc(C(N)=S)ccn1` [ethionamide], the IC50 was 4 µM.
